The values that follow are results of earlier work, collected in patent publication US9072718B2, “Burdock fruit extract containing arctigenin and method for producing same” (Kracie Pharma, Ltd., priority 2010, dated 2015).

Each structure is given as a SMILES string.

For data set [1] the following is noted: stated without a test.
Data set [2] concerns pancreas cancer cell line PANC-1. The note with it: PANC-1, undernutrition condition; Non-patent document 1.

For the compound `COc1cc(C[C@H]2C(=O)OC[C@@H]2Cc2ccc(OC)c(OC)c2)ccc1O` [arctigenin], in data set [1], the solubility in water entry was “hardly soluble in water”. The “effect on viability of tumor cells in the undernutrition condition” value in data set [2] is given as “effective”.
For `COc1ccc(C[C@H]2COC(=O)[C@@H]2Cc2ccc(O[C@@H]3O[C@H](CO)[C@@H](O)[C@H](O)[C@H]3O)c(OC)c2)cc1OC` [arctiin], the solubility in water result in data set [1] is recorded as “hardly soluble in water”.
